According to patent US20190060391A1, “POWDER FORMULATION HAVING HY[…] HYP[…] AND METHOD FOR PREPARING THE SAME” (INFINITUS (CHINA) COMPANY LTD., priority 2017, published 2019):
Structures can show the parent of a compound that is named as a salt.

How the values were obtained:
alloxan-induced mice = experiment: Fasting blood glucose and glucose tolerance in alloxan hyperglycemia model mice; type: in vivo, ICR mouse; conditions: for Blood glucose decreasing rate of the mice: positive control 230 mg/Kg; for Blood glucose of the mice: positive control 230 mg/kg
Description: (§1) Method for preparing the solution of the test sample (500 mg/kg): 2.3011 g of the test sample was precisely weighed and 46 mL of distilled water was added to prepare a solution of 0.05 g/mL, i.e., high-dose group of the test sample (500 mg/kg, 1 mL/100 g), which was equal to 30 times the recommended amount for human.
as §1, with “(170” for “(500”, “0.6970” for “2.3011”, “41” for “46”, “0.017” for “0.05”, “medium-dose” for “high-dose”, “10” for “30”
as §1, with “(85” for “(500”, “0.3396” for “2.3011”, “40” for “46”, “0.0085” for “0.05”, “low-dose” for “high-dose”, “5” for “30”
Method for preparing the positive control sample: the metformin hydrochloride tablet was milled into fine powders by a mortar, 0.1470 g powder was precisely weighed and transferred to a 10 mL-centrifugal tube. 5 mL of distilled water was added by a pipette to prepare a solution with a concentration of 0.023 g/mL, i.e., metformin positive control group for mouse (230 mg/kg, 0.1 ml/10 g), which was equal to 13.5 times the recommended amount for human.
The administration of test sample to the rats lasted for 45 days, and the administration to mice lasted for 55 days.
After 3-day of adaptive housing with normal feeding, 15 mice were randomly chosen and subjected to fasting for 3 to 5 hours. The fasting blood glucose value was measured as the basal blood glucose value of this batch of animals. Thereafter, the mice were subjected to fasting for 24 hours (with free access to water). Except for the blank group and the negative control group, 96 mg/kg of alloxan (fresh prepared) were injected via caudal vein to establish the model, at an administration amount of 0.1 mL/10 g. 4 days later, the animals were fasted for 3 to 5 hours and the blood glucose was tested. Animals with blood glucose of 10 to 25 mmol/L were considered as hyperglycemia model animals. The fasting blood glucose value of mice was tested every two week. After the experiments, animals in each group were fasted for 3 to 4 hours, and the fasting blood glucose, glucose tolerance, blood glucose decreasing rate and the area under the blood glucose curve were tested.

Body weight of mice = type: in vivo, ICR mouse; conditions: alloxan mice, positive control 230 mg/kg
Excerpt: The mice were weighed after 1-day adaptive feed, and the mice were weighed once a week and recorded. The administration of test sample to the rats lasted for 45 days, and the administration to mice lasted for 55 days.

[1] = Organ coefficient of mice; type: in vivo, ICR mouse; conditions: alloxan mice, positive control 230 mg/kg
Description: The mice were subjected to euthanasia and dissection. Hearts, livers, spleens, lungs, kidneys and pancreases of the mice were weighed, imaged and recorded, respectively. The organ coefficients were calculated. In addition, pancreases from each group were respectively immersed into formalin-containing bottles, and the sections were sent for pathological examination.
After administration of the test sample, the hearts, livers, spleens, lungs, kidneys and pancreases of the mice in each group were weighed respectively, and organ coefficients of each group were compared.

diabetic rats [2] = experiment: Fasting blood glucose and glucose tolerance in diabetic rats (high calorie feed plus alloxan); type: in vivo, SD rat; conditions: for Blood Glucose at 0 hour / Blood Glucose at 2th hour / Blood Glucose at 0.5 hour: rats, positive control 170 mg/kg
Description: as §1
as §1, with “(170” for “(500”, “0.6970” for “2.3011”, “41” for “46”, “0.017” for “0.05”, “medium-dose” for “high-dose”, “10” for “30”
as §1, with “(85” for “(500”, “0.3396” for “2.3011”, “40” for “46”, “0.0085” for “0.05”, “low-dose” for “high-dose”, “5” for “30”
Method for preparing the positive control sample: the metformin hydrochloride tablet was milled into fine powders by a mortar, 0.9329 g powder was precisely weighed and transferred to a 100 mL-beaker. 43 mL of distilled water was added by using a 100 mL-graduated cylinder, preparing solution with a concentration of 0.017 g/mL, i.e., metformin positive control group for rat (170 mg/kg, 1 ml/100 g), which was equal to 10 times the recommended amount for human.
After 5-day of adaptive housing with normal feeding, the rats were fasted for 3 to 4 hours and blood samples were taken from the tails. The fasting blood glucose value, which was the blood glucose value before administration of glucose (0 hour), was tested. After administration of 2.5 g/kgBW glucose, the blood glucose level was tested at the 0.5 hour and the 2nd hour as the basal value of that batch of animals. The rats were divided into 6 groups according to the blood glucose value at 0 hour and the 0.5 hour, including one blank group, one positive control group, one model group and 3 dosing groups of the test sample. There were 20 rats in the high-dose group, and 18 rats in the other groups. The blank group was not treated. The positive control group was administered with metformin solution by intragastric gavage. The 3 dosing groups of the test sample were administered with test sample solutions of different concentrations by intragastric gavage. The model group was administered with the solvent of the same volume. […] Normal feeds were provided to all groups. One week later, high calorie feeds were provided to the model group, positive control group and three dosing groups of the test sample. 30 days after the feeding, the rats were fasted for 24 hours. The model group and the three dosing groups of the test sample were respectively peritoneal injected with alloxan of 200 mg/kgBW (the injection amount was […] weight) on the base of high calorie feed. The model group and 3 dosing groups of the test sample were continuously fed on high calorie feeds for 3 days. When the experiment ended, animals in each group were fasted for 3 to 4 hours, and the fasting blood glucose, glucose tolerance and area under the blood glucose curve were measured.

diabetic rats [3] = experiment: Cholesterol level and triglyceride level in serum of rats; type: in vivo, SD rat; conditions: positive control 170 mg/kg
Description: After the experiment, the rats in each group were fasted for 3 to 4 hours and peritoneal injected with pentobarbital sodium solution (1 mL/100 g) for anesthesia. 8 mL of blood was taken from the femoral artery and centrifuged at 4500 r for 6 minutes at 4° C. The serum was taken and the cholesterol level was tested by a cholesterol kit, and the triglyceride level was tested by a triglyceride kit.

Body weight of rats = type: in vivo, SD rat; design: unit not given here; conditions: diabetic rats, positive control 170 mg/kg
Excerpt: The rats were weighed after 1-day adaptive feed, and the rats were weighed once a week and recorded.

[4] = Organ coefficient of rats; type: in vivo, SD rat; conditions: diabetic rats, positive control 170 mg/kg
Description: The rats were subjected to euthanasia and dissection. Hearts, livers, spleens, lungs, kidneys and parts of the pancreases of the rats were weighed, imaged and recorded, respectively. The organ coefficients were calculated. In addition, pancreases from each group were respectively immersed into formalin-containing bottles.

- Heart Coefficient [1]: 0.50 ± 0.09
- Kidney Coefficient [1]: 2.17 ± 0.61
- Liver Coefficient [1]: 4.96 ± 1.67
- Lung Coefficient [1]: 0.67 ± 0.14
- Pancreas Coefficient [1]: 0.76 ± 0.31
- Spleen Coefficient [1]: 0.47 ± 0.37
- Heart Coefficient [4]: 0.36 ± 0.06
- Kidney Coefficient [4]: 0.88 ± 0.20
- Liver Coefficient [4]: 3.36 ± 0.48
- Lung Coefficient [4]: 0.53 ± 0.15
- Pancreas Coefficient [4]: 0.37 ± 0.13
- Spleen Coefficient [4]: 0.16 ± 0.09
SMILES: CN(C)C(=N)N=C(N)N [metformin, metformin hydrochloride]
- Blood glucose decreasing rate of the mice (alloxan-induced mice; 45 d): −20.06% ± 0.30
- Blood glucose decreasing rate of the mice (alloxan-induced mice; 55 d): 21.60% ± 0.48
- Blood glucose of the mice (alloxan-induced mice; 0 d): 22.87 ± 3.66 mmol/L
- Blood glucose of the mice (alloxan-induced mice; 16 d): 13.60 ± 4.82 mmol/L
- Blood glucose of the mice (alloxan-induced mice; 30 d): 15.57 ± 5.85 mmol/L
- Blood glucose of the mice (alloxan-induced mice; 45 d): 18.28 ± 5.86 mmol/L
- Blood glucose of the mice (alloxan-induced mice; 55 d): 17.93 ± 10.23 mmol/L
- Effect on fasting blood glucose vs model group (in words) (alloxan-induced mice; positive control group): significantly improved symptom of the hyperglycemia
- Changes of body weight of mice (Body weight of mice; 1 d): 21.1 ± 2.0 g
- Changes of body weight of mice (Body weight of mice; 2 d): 23.3 ± 2.3 g
- Changes of body weight of mice (Body weight of mice; 6 d): 22.1 ± 3.1 g
- Changes of body weight of mice (Body weight of mice; 8 d): 22.8 ± 5.8 g
- Changes of body weight of mice (Body weight of mice; 11 d): 23.1 ± 4.0 g
- Changes of body weight of mice (Body weight of mice; 20 d): 25.6 ± 5.4 g
- Changes of body weight of mice (Body weight of mice; 27 d): 25.3 ± 4.2 g
- Changes of body weight of mice (Body weight of mice; 34 d): 27.8 ± 4.1 g
- Changes of body weight of mice (Body weight of mice; 41 d): 29.1 ± 4.8 g
- Changes of body weight of mice (Body weight of mice; 48 d): 27.0 ± 5.4 g
- Changes of body weight of mice (Body weight of mice; 55 d): 27.2 ± 5.2 g
- Area under the blood glucose curve vs model group (in words) (diabetic rats [2]; diabetic rats, glucose tolerance test): showed significant differences
- Effect on fasting blood glucose vs model group (in words) (diabetic rats [2]; diabetic rats, positive control group): significantly improved symptom of the hyperglycemia
- Blood Glucose at 0 hour (diabetic rats [2]; 4D): 6.00 ± 0.87
- Blood Glucose at 2th hour (diabetic rats [2]; 4D): 5.75 ± 0.97
- Blood Glucose at 0.5 hour (diabetic rats [2]; 4D): 8.33 ± 1.54
- Blood Glucose at 0 hour (diabetic rats [2]; 45D): 12.05 ± 4.98
- Blood Glucose at 2th hour (diabetic rats [2]; 45D): 13.31 ± 5.83
- Blood Glucose at 0.5 hour (diabetic rats [2]; 45D): 15.98 ± 4.87
- Cholesterol Index (diabetic rats [3]): 3.71 ± 1.57
- Triglyceride Index (diabetic rats [3]): 9.47 ± 5.29
- Weight changes of rats (Body weight of rats; 3 d): 207.00 ± 10.91
- Weight changes of rats (Body weight of rats; 6 d): 225.22 ± 12.01
- Weight changes of rats (Body weight of rats; 8 d): 244.28 ± 10.93
- Weight changes of rats (Body weight of rats; 12 d): 277.50 ± 8.25
- Weight changes of rats (Body weight of rats; 22 d): 325.89 ± 18.39
- Weight changes of rats (Body weight of rats; 28 d): 373.67 ± 21.40
- Weight changes of rats (Body weight of rats; 35 d): 396.22 ± 23.32
- Weight changes of rats (Body weight of rats; 42 d): 403.83 ± 21.22
- Weight changes of rats (Body weight of rats; 45 d): 361.19 ± 27.43
